Legend:
Poly(d(A-T))2 = test: DNA thermal melting; type: binding; conditions: from ΔTm values; for Reduction in DNA affinity: compared within the bis-guanidine series
T.b.r. strain STIB900 = test: STIB900 acute mouse model for African trypanosomiasis; type: in vivo
[1] = test system: Trypanosoma brucei rhodesiense (T.b.r.) strain STIB900; type: cell-based; conditions: RHODESIENSE|STIB900, read-out: T.b.r. IC50

Compound: N=C(N)Nc1ccc(-c2ccc(-c3ccc(NC(=N)N)cc3)cc2)cc1 [6a, 4,4″-Bis-guanidino-[1,1′;4′,1″]terphenyl]
- Reduction of DNA affinity from that of the corresponding diamidine V (Poly(d(A-T))2): about 20%
- Cures (mice that survived 60 days and are parasite-free) (T.b.r. strain STIB900; 20 mg/kg ip for 4 days): none gave cures

Compound: N=C(N)Nc1ccc(-c2ccc(-c3ccc(NC(=N)N)cn3)cc2)nc1 [6b, 1,4-Bis-[5′-guanidinopyridin-2′-yl]phenylene]
- Reduction in DNA affinity (Poly(d(A-T))2): approximately one third

Compound: CCOC(=O)/N=C(\N)Nc1ccc(-c2ccc(-c3ccc(N/C(N)=N/C(=O)OCC)cc3)cc2)cc1 [8a, 4,4″-Bis(N′-ethoxycarbonyl)-guanidino-[1,1′;4′,1″]terphenyl]
- Cures (mice that survived 60 days and are parasite-free) (T.b.r. strain STIB900; 25 mg/kg po for 4 days): no cures were achieved

Compound: CCOC(=O)/N=C(\NC)Nc1ccc(-c2ccc(-c3ccc(N/C(=N/C(=O)OCC)NC)cc3)cc2)cc1 [8c, 4,4″-Bis(N′-ethoxycarbonyl-N″-methyl)-guanidino-[1,1′;4′,1″]terphenyl]
- Cures (mice that survived 60 days and are parasite-free) (T.b.r. strain STIB900; 25 mg/kg po for 4 days): no cures were achieved

Compound: CNC(=N)Nc1ccc(-c2ccc(-c3ccc(NC(=N)NC)cc3)cc2)cc1 [9c, 4,4″-Bis(N′-methyl)-guanidino-[1,1′;4′,1″]terphenyl]
- Cures (mice that survived 60 days and are parasite-free) (T.b.r. strain STIB900; 20 mg/kg ip for 4 days): none gave cures

Compound: CNC(=N)Nc1ccc(-c2ccc(-c3ccc(NC(=N)NC)cn3)cc2)nc1 [9d, 1,4-Bis-[5′-(N′-methylguanidino)-pyridin-2′-yl]-phenylene]
- Acute toxicity in treated mice (T.b.r. strain STIB900; 20 mg/kg ip): showed acute toxicity
- Cures (mice that survived 60 days and are parasite-free) (T.b.r. strain STIB900; 20 mg/kg ip for 4 days): none gave cures

Compound: CC(C)NC(=N)Nc1ccc(-c2ccc(-c3ccc(NC(=N)NC(C)C)cc3)cc2)cc1 [9e, 4,4″-Bis(N′-isopropyl)-guanidino-[1,1′;4′,1″]terphenyl]
- Reduction in DNA affinity (Poly(d(A-T))2): approximately one third

Compound: N=C(N)c1ccc(-c2ccc(-c3ccc(C(=N)N)cc3)cc2)cc1 [V]
- IC50 [1]: 5 nM

From paper PMC3815585 (European journal of medicinal chemistry, 2008)
